“Also recorded” adds a separate entry of the source.
How the values were obtained:
[1] = system: Fuchs' endothelial corneal dystrophy patient-derived immortalized corneal endothelial cells; test: Cell damage inhibitory effect on iFECD stimulated with TGF-β2 (phase contrast microscope); format: cell-based, human; details: for disorder in the corneal endothelial cells: 1 μM and 3 μM, iFECD, pretreatment, TGF-β2 stimulation; for cell damage inhibitory effect for the corneal endothelial cells: at sub-μM
Procedure: The medium was removed from the culture dish in which Fuchs' endothelial corneal dystrophy patient-derived immortalized corneal endothelial cells (hereinafter, referred to as disease model cells) were being cultured, and the cells were supplemented with 1×PBS (−) that was preheated to 37° C., and were washed. This operation was repeated twice. The cells were supplemented with 1×PBS (−) again and incubated for 5 minutes at 37° C. (5% CO2). After the PBS (−) was removed, the cells were supplemented with 0.05% Trypsin-EDTA (nacalai tesque, 32778-34) and incubated for 5 minutes at 37° C. (5% CO2). The cells were then suspended in a medium, and collected by centrifugation at 1500 rpm for 3 minutes. DMEM (nacalai tesque, 08456-36)+10% FBS (Biowest, S1820-500)+1% P/S (nacalai tesque, 26252-94) was used as the medium. The disease model cells were seeded in a 6-well plate at a rate of 1.5×10^5 cells per well and cultured at 37° C. (5% CO2) for 48 hours. DMEM+10% FBS+1% P/S was used as the medium.
After 48 hours, the medium was removed, and AKP-001, SB203580 (Cayman, 13067), PH-797804 (Selleck Chemicals, S2726) and VX-702 (Selleck Chemicals, 56005) were added to DMEM+2% FBS+1% P/S so that the final concentration was 0.01, 0.03, 0.1, 0.3, 1, 3, 10 and 30 μM, followed by culturing as 24-hour pretreatment. After 24 hours, the medium was removed, and AKP-001, 5B203580 (Cayman, 13067), PH-797804 (Selleck Chemicals, S2726), or VX-702 (Selleck Chemicals, S6005), together with 100 ng/ml Recombinant Human TGF-β2 (R&D systems, RND302-B2-002), were added to DMEM+2% FBS+1% P/S so that the final concentration was 0.01 μM, 0.03 μM, 0.1 μM, 0.3 μM, 1 μM, 3 μM, 10 μM, and 30 μM, followed by culturing for 24 hours. After 24 hours, cell damage was evaluated by observation with a phase contrast microscope. As a control, immortalized corneal endothelial cells that were not stimulated with TGF-β were used.

[2] = system: cleaved caspase-3 and PARP; test: Western blot of caspase 3 and PARP in iFECD stimulated with TGF-β2; format: cell-based, human; details: 0.1 μM; for cleaved caspase-3 and PARP expression: 100 ng/ml TGF-β2, 24 hours; for caspase activity: TGF-β2
Procedure: The medium was removed from the culture dish of cultured disease model cells, and the disease model cells were supplemented with 1×PBS (−) that was preheated to 37° C., followed by washing. This operation was repeated twice. The cells were supplemented with 1×PBS (−) again and incubated for 5 minutes at 37° C. (5% CO2). After the PBS (−) was removed, the cells were supplemented with 0.05% Trypsin-EDTA (nacalai tesque, 32778-34) and incubated for 5 minutes at 37° C. (5% CO2). The cells were then suspended in a medium, and collected by centrifugation at 1500 rpm for 3 minutes. Medium: DMEM (nacalai tesque, 08456-36)+10% FBS (Biowest, S1820-500)+1% P/S (nacalai tesque, 26252-94).
The Fuchs' endothelial corneal dystrophy patient-derived immortalized corneal endothelial cells were seeded in a 6-well plate at a rate of 1.5×10^5 cells per well and cultured at 37° C. (5% CO2) for 48 hours. DMEM+10% FBS+1% P/S was used as the medium. After 48 hours, the medium was removed, and SB203580 (Cayman, 13067), PH-797804 (Selleck Chemicals, S2726), VX-702 (Selleck Chemicals, 56005) and AKP-001 were added to DMEM+2% FBS+1% P/S so that all the final concentration was 0.1 μM, followed by culturing as 24-hour pretreatment.
After 24 hours, the medium was removed, and SB203580 (Cayman, 13067), PH-797804 (Selleck Chemicals, S2726), VX-702 (Selleck Chemicals, 56005) and AKP-001, together with 100 ng/ml recombinant human TGF-β2 (R & D systems, RND302-B2-002), were added to DMEM+2% FBS+1% P/S so that all the final concentration was 0.1 μM, followed by culturing for 24 hours. After 24 hours, the protein was subjected to Western blotting according to the following procedure to evaluate the effect on apoptosis.
The medium was collected on ice to collect free and dead cells as well. The solution obtained from washing the cells twice with 1×PBS (−) was also collected, followed by centrifugation of 800 g at 4° C. for 5 minutes. The supernatant was discarded to obtain precipitates. The washed cells were supplemented with a protein extraction buffer (RIPA; 50 mM Tris-HCl (pH 7.4), 150 mM NaCl, 1 mM EDTA, 0.1% SDS, 0.5% DOC, 1% NP-40) on ice to extract proteins. The precipitates from centrifuging the free and dead cells were also subsequently suspended together for extraction. The collected solution was pulverized three times for 30 seconds in cold water with a sonication device (BIORUPTOR, TOSHO DENKI) and centrifuged for 10 min at 4° C. at 15000 rpm to collect the supernatant of proteins.
Eight μg of the extracted protein was separated by SDS-PAGE and transferred onto a nitrocellulose membrane. A rabbit anti-Caspase 3 antibody (Cell Signaling, 9662), rabbit anti-PARP antibody (Cell Signaling, 9542), and mouse anti-GAPDH antibody (MBL, M171-3) were used as the primary antibodies. A peroxidase-labeled anti-rabbit antibody and anti-mouse antibody (GE Healthcare Biosciences, NA931V, NA934V) were used as the secondary antibodies. For the primary antibodies, the rabbit anti-PARP antibody was diluted 1000-fold, the rabbit anti-Caspase 3 antibody was diluted 1000-fold, and the mouse anti-GAPDH antibody was diluted 3000-fold. Further, the secondary antibody was diluted 5000-fold. Chemi Lumi ONE Ultra (Nacalai Tesque, 11644-40) was used for detection. The detected band strength was analyzed with a lumino image analyzer LAS-4000 mini (Fuji Film) and ImageQuant™ software (GE Healthcare).

corneal endothelium = test: Histological analysis of the corneal endothelium after instillation; format: in vivo; details: 10 μM into the anterior chamber, after 24 hours, positive control
Text: Rabbits were euthanized, and then their eyes were removed and histologically analyzed. Expression of markers related to corneal endothelial functions was confirmed by immunostaining. The sclerocornea fragments were fixed with 0.5% paraformaldehyde and then blocked with 1% bovine serum albumin. As primary antibodies, ZO-1 antibody (Life Technologies) and N-cadherin antibody (BD Biosciences), which are indicators of the barrier function of corneal endothelial cells, and Na^+/K^+-ATPase antibody (MILLIPORE), which is an indicator of pump functions, were added, followed by standing at 4° C. overnight. […] Further, nuclear staining was performed using DAPI (Dojindo). To observe the cell morphology, actin was stained using Phalloidin (Life Technologies). The stained sclerocornea fragments were mounted in slide glasses and observed using a confocal fluorescence microscope (TCS SPE, Leica).
In addition, rabbits were euthanized, and then their eyes were removed. To assess cell death, the sclerocornea fragments were stained with Annexin V (Zymed Laboratories) and PI (Zymed Laboratories), fixed with 0.5% paraformaldehyde, and nuclear stained with DAPI (Dojindo). The stained sclerocornea fragments were mounted in slide glass and observed using a confocal fluorescence microscope (TCS SPE, Leica). Staurosporine (10 μM, Merck Millipore) was administered into the anterior chamber of a rabbit eyeball, and after 24 hours, it was used as a positive control.

| Structure (SMILES) | disorder in the corneal endothelial cells [1] | cell damage inhibitory effect for the corneal endothelial cells [1] | cleaved caspase-3 and PARP expression [2] | caspase activity [2] | Annexin V and PI staining (cell death) (corneal endothelium) |
| --- | --- | --- | --- | --- | --- |
| CNC(=O)c1ccc(C)c(-n2c(C)cc(OCc3ccc(F)cc3F)c(Br)c2=O)c1 [PH-797804] | effectively suppressed | not observed; also recorded: No inhibitory effects | confirmed similarly | not inhibited |  |
| NC(=O)c1ccc(N(C(N)=O)c2c(F)cccc2F)nc1-c1ccc(F)cc1F [VX-702] | effectively suppressed | not observed; also recorded: No inhibitory effects | confirmed similarly | not inhibited |  |
| CN[C@@H]1C[C@H]2O[C@@](C)([C@@H]1OC)n1c3ccccc3c3c4c(c5c6ccccc6n2c5c31)C(=O)NC4 [staurosporine, reference compound] |  |  |  |  | Staining with Annexin V or PI was observed |

From patent US11576914B2, “Drug for treating or preventing disorder caused by TGF-β signaling, and application thereof” (THE DOSHISHA, priority 2017, dated 2023)
